{"source": "patent US20160184248A1", "about": "“COMPOSITIONS AND METHODS OF USE OF -HYDROXY-METHYLBUTYRATE (HMB) RESULTING IN AN ACUTE ENDOCRINE RESPONSE” (University of Central Florida Research Foundation Inc., priority 2014, published 2016)", "key": {"[1]": {"tested_on": "insulin", "test": "Serum insulin response to the exercise protocol after HMB ingestion", "format": "in vivo, human", "details": "acute ingestion and training session", "from_the_text": "(§1) Twenty resistance trained men (22.3±2.4 y, 1.8±0.1 m, […]) volunteered to participate in this study. Participants were randomly separated into one of two groups: ingestion of HMB free-acid (HMB-FA; n=10) or ingestion of placebo (PL; n=10). Following an explanation of all procedures, risks, and benefits, each participant gave his informed consent prior to participation in this study. The Institutional Review Board for the protection of human subjects of the University of Central Florida approved the research protocol. For inclusion in this study, participants were required to have a minimum of one year of resistance training experience, particularly in the squat exercise. Participants were not permitted to use any additional nutritional supplements or medications while enrolled in this study. Screening for nutritional and hormonal supplements was accomplished via a health history questionnaire completed during participant recruitment.\n(§2) The investigation utilized a placebo-controlled, double-blind, randomized design. Participants reported to the laboratory on two occasions. […] Total training volume, calculated as repetitions×load, was recorded for further analysis. […]\n(§3) Prior to analysis, all data were assessed to ensure normal distribution, homogeneity of variance, and sphericity. […]"}, "[2]": {"tested_on": "testosterone", "test": "Plasma testosterone after HMB-FA ingestion and resistance exercise", "format": "in vivo, human", "details": "acute ingestion and training session", "from_the_text": "as §1, §2, §3"}, "[3]": {"details": "after HMB is fed; cited from earlier work"}, "[4]": {"details": "healthy young or old adults; cited from earlier work"}, "[5]": {"tested_on": "muscle proteolysis", "details": "isolated rat muscle, in vitro; cited from earlier work"}, "[6]": {"tested_on": "insulin", "details": "HMB treated rats, prolonged supplementation; cited from earlier work"}, "[7]": {"test": "Plasma HMB by gas chromatography-mass spectrometry after HMB-FA ingestion and resistance exercise", "format": "in vivo, human", "details": "1 g HMB-FA 30 min prior to exercise, p<0.01", "from_the_text": "as §1, with “Participants were not permitted to use any additional nutritional supplements or medications while enrolled in this study. Screening for nutritional and hormonal supplements was accomplished via a health history questionnaire completed during participant recruitment.” left out\nThe investigation utilized a placebo-controlled, double-blind, randomized design. […] Total training volume, calculated as repetitions×load, was recorded for further analysis. […]\nPlasma HMB was analyzed by Metabolic Technologies Inc. by gas chromatography-mass spectrometry with previously outlined methods to confirm HMB appearance in the plasma (17). Myoglobin concentration was determined via a Myoglobin ELISA kit (Calbiotec, Cat no: MG017C, Spring Valley, Calif., USA) and prepared per manufacturer's instructions. Determination of serum immunoreactivity values was determined using a BioTek Eon spectrophotometer (BioTek, Winooski, Vt., USA). […]"}, "[8]": {"tested_on": "growth hormone", "test": "Growth hormone response to resistance exercise after HMB-FA ingestion (commercial kit)", "format": "in vivo, human", "from_the_text": "as §1\nThe investigation utilized a placebo-controlled, double-blind, randomized design. Participants reported to the laboratory on two occasions. On the first visit (T1), participants were tested for their one-repetition maximum (1-RM) on the barbell back squat, dead lift, and barbell split squat exercises. Participants were instructed to refrain from any form of exercise for a minimum of 72 hours prior to the resistance training bout (T2). On T2, participants completed an intense lower-body resistance exercise session, which consisted of four sets of the barbell back squat, dead lift, and barbell split squat exercises. The barbell back squat exercise was performed with 80% of the participant's 1-RM and the dead lift and barbell split squat exercises were performed with 70% of the participant's 1-RM. Rest intervals were set at 90 s between each set and between exercises. […] Total training volume, calculated as repetitions×load, was recorded for further analysis. […]\nas §3"}, "[9]": {"tested_on": "insulin-like growth factor (IGF-1)", "test": "Plasma IGF-1 response to resistance exercise after HMB-FA ingestion (commercial kit)", "format": "in vivo, human", "from_the_text": "as §1\nThe investigation utilized a placebo-controlled, double-blind, randomized design. Participants reported to the laboratory on two occasions. On the first visit (T1), participants were tested for their one-repetition maximum (1-RM) on the barbell back squat, dead lift, and barbell split squat exercises. Participants were instructed to refrain from any form of exercise for a minimum of 72 hours prior to the resistance training bout (T2). On T2, participants completed an intense lower-body resistance exercise session, which consisted of four sets of the barbell back squat, dead lift, and barbell split squat exercises. The barbell back squat exercise was performed with 80% of the participant's 1-RM and the dead lift and barbell split squat exercises were performed with 70% of the participant's 1-RM. Rest intervals were set at 90 s between each set and between exercises. Participants were encouraged to perform as many repetitions as possible up to 10 repetitions for each set. Total training volume, calculated as repetitions×load, was recorded for further analysis.\nThe HMB-FA supplement consisted of one gram of β-hydroxy-β-methylbutyrate in the free-acid form (Beta-TOR®, Metabolic Technologies Inc., Ames, Iowa), reverse osmosis water, de-bittering agent, flavor, stevia extract, and potassium carbonate. Each serving of placebo contained one gram of polydextrose and was identical to the HMB-FA supplement in appearance and taste. The HMB-FA and PL treatments were produced and supplied by Metabolic Technologies Inc. (Ames, Iowa). One serving of HMB-FA or PL was consumed 30 minutes prior to the exercise session. All HMB-FA and PL ingestion took place in the Human Performance Lab and was witnessed by one of the investigators. […]\nas §3"}, "[10]": {"details": "in vivo; cited from earlier work"}, "[11]": {"tested_on": "muscle damage", "details": "initiated 30 min prior to an acute bout of exercise; cited from earlier work"}, "[12]": {"details": "AUC over PRE, IP, 30P, trapezoidal, p=0.02"}}, "data": [{"smiles": "CC(C)(O)CC(=O)O", "note": "[HMB, β-hydroxy-β-methylbutyrate]", "values": [{"measurement": "Effect on the insulin response to the exercise protocol", "setting": "[1]", "value": "unable to demonstrate any effect"}, {"measurement": "Circulating testosterone levels", "setting": "[2]", "value": "no differences"}, {"measurement": "Loss of HMB to urine", "setting": "[3]", "value": "20-50%"}, {"measurement": "Side effects", "setting": "[4]", "value": "no side effects"}, {"measurement": "Inhibition of muscle proteolysis", "setting": "[5]", "value": "potent inhibitor of muscle proteolysis"}, {"measurement": "Resting insulin concentrations", "setting": "[6]", "value": "significant increases"}]}, {"smiles": "CC(C)(O)CC(=O)O", "note": "[HMB-FA, β-hydroxy-β-methylbutyric acid]", "values": [{"measurement": "Plasma HMB concentrations", "setting": "[7]; 30 min post-exercise (30P)", "value": "significantly elevated"}, {"measurement": "Plasma HMB concentrations", "setting": "[7]; immediately post-exercise (IP)", "value": "significantly elevated"}, {"measurement": "Growth hormone concentration, elevation vs PL", "setting": "[8]; 30P, p=0.100", "value": "no difference between the groups"}, {"measurement": "Growth hormone AUC vs PL", "setting": "[8]; [12]", "value": "significantly higher GH response"}, {"measurement": "Growth hormone concentration, elevation vs PL", "setting": "[8]; IP, 1 g HMB-FA 30 min prior to exercise, p=0.021", "value": "significantly higher than PL"}, {"measurement": "IGF-1 concentration vs PL", "setting": "[9]; 30P", "value": "No differences were observed between the groups"}, {"measurement": "IGF-1 AUC vs PL", "setting": "[9]; [12]", "value": "greater IGF-1 response"}, {"measurement": "IGF-1 concentration vs PL", "setting": "[9]; IP", "value": "No differences were observed between the groups"}, {"measurement": "IGF-1 concentration vs PL", "setting": "[9]; PRE (baseline), supplement given 15 min before the PRE blood draw, p=0.012", "value": "elevated at baseline"}, {"measurement": "Absorption compared with CaHMB", "setting": "[10]", "value": "absorbed quicker"}, {"measurement": "Tissue clearance compared with CaHMB", "setting": "[10]", "value": "greater tissue clearance"}, {"measurement": "Attenuating muscle damage and ameliorating inflammatory response compared with CaHMB", "setting": "[11]", "value": "more efficacious"}]}]}
